Measured values as given in US11597728B2, “Monoacylglycerol lipase modulators” (Janssen Pharmaceutica NV, priority 2018, dated 2023).

Target: human MGL from HeLa cells (Homo sapiens (Human), UniProt Q99685)
Test: In vitro MGL activity assay: cleavage of [glycerol-1,3-3H]-oleoyl glycerol, activated carbon filtration
Format: biochemical

Chain of human MGL from HeLa cells (Q99685 whole entry): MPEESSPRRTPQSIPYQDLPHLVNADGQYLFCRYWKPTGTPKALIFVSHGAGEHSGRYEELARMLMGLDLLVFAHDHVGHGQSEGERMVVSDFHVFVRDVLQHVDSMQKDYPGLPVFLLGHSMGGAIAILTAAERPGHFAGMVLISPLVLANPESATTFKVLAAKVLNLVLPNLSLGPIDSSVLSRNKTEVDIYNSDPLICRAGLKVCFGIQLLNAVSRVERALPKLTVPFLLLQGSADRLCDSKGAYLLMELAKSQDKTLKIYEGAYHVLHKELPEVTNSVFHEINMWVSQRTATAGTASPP

SMILES: Cn1nc2c(c1-c1ccc(F)c(F)c1)C[C@H]1CCC[C@@H]2N1C(=O)c1ccccc1-n1nccn1 [Example 126, (2-(2H-1,2,3-Triazol-2-yl)phenyl)((5R,9S)-3-(3,4-difluorophenyl)-2-methyl-4,5,6,7,8,9-hexahydro-2H-5,9-epiminocycloocta[c]pyrazol-10-yl)methanone]
- IC50: 7.44 nM
